Measured values as given in article PMC6934184, “Selective DNA-PKcs inhibition extends the therapeutic index of localized radiotherapy and chemotherapy” (The Journal of Clinical Investigation, 2019).

Molecular target: T1, BMPR2 (Homo sapiens, UniProt Q13873)
T1 construct: purchased Thermo Fisher Scientific (Life Technologies) SelectScreen
Assay: SelectScreen LanthaScreen
Type: binding
Conditions: 1 µM
Outline: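 Percent values come from Thermo SelectScreen profiling of NU5455, combining activity and binding assays. CSF1R was run in Z'LYTE format at Km app ATP, and CAMK1 in Adapta format with ATP listed at 10.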

T1 sequence (Q13873 27-1038): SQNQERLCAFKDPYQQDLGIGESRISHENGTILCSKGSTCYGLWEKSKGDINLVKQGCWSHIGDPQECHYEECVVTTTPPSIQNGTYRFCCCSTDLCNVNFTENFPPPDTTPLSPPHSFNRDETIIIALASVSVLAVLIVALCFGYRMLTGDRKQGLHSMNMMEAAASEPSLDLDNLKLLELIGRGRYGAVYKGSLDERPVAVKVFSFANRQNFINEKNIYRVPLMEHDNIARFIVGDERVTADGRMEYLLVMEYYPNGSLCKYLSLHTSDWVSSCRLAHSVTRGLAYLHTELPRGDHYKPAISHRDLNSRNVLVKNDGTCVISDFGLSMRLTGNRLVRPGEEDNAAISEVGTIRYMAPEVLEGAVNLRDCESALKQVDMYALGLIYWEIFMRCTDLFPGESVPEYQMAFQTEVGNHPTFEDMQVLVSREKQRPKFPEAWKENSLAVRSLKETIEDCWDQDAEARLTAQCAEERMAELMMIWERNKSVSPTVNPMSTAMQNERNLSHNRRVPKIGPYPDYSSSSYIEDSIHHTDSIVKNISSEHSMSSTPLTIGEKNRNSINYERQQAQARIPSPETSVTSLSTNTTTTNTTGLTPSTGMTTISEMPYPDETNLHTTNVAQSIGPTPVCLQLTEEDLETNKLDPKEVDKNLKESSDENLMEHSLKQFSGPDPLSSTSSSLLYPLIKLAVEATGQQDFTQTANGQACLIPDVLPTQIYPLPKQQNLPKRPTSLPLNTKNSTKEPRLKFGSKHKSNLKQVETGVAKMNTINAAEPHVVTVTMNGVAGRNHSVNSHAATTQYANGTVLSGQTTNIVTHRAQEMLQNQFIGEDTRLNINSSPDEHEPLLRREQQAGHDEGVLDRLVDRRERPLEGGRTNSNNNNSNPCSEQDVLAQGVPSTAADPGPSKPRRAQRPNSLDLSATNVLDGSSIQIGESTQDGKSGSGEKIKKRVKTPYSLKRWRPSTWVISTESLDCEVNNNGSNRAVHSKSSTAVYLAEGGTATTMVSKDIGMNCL

CN(C(=O)CN1CCOCC1)c1ccc2sc3c(-c4cccc5c(=O)cc(N6CC7CCC(C6)O7)oc45)cccc3c2c1 [NU5455] was tested, and the “% displacement” value was -2.5%.
